Tests used:
Assay type in all cases: biochemical
Human KLK1 = Human KLK1 (Homo sapiens (Human), UniProt P06870); assay: Determination of the IC50 for KLK1 (fluorogenic substrate H-DVal-Leu-Arg-AFC); conditions: 37° C.
Protocol: Determination of the IC50 for KLK1
(§1) Human KLK1 (Callbiochem) was incubated at 37° C. with the fluorogenic substrate H-DVal-Leu-Arg-AFC and various concentrations of the test compound. Residual enzyme activity (initial rate of reaction) was determined by measuring the change in […] at 410 nm and the IC50 value for the test compound was determined.

Human plasma kallikrein = Human plasma kallikrein (Homo sapiens (Human), UniProt P03952); assay: Determination of the IC50 for plasma kallikrein (fluorogenic substrate H-DPro-Phe-Arg-AFC); conditions: 37° C., read-out: IC50 (human PKaI)
Chain of Human plasma kallikrein (P03952 391-638): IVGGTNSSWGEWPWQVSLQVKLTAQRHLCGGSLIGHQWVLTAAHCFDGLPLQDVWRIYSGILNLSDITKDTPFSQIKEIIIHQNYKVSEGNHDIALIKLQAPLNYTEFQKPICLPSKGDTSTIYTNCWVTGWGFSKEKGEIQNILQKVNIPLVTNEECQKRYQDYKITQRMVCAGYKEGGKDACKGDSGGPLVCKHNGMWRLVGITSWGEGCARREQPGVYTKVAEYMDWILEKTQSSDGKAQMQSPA
Chain of Human plasma kallikrein (P03952 20-390 partner): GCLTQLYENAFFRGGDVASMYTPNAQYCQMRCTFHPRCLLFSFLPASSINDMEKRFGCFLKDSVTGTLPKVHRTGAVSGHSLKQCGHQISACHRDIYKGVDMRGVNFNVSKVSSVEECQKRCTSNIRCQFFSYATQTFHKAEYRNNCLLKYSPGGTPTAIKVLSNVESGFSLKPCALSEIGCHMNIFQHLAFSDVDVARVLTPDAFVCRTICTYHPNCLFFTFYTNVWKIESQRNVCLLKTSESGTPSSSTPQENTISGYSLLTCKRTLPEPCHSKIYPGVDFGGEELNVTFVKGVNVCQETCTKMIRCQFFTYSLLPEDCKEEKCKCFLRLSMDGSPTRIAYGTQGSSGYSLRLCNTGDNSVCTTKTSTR
Protocol: Determination of the IC50 for Plasma Kallikrein
as §1, with “plasma kallikrein (Protogen)” for “KLK1 (Callbiochem)”, “H-DPro-Phe-Arg-AFC” for “H-DVal-Leu-Arg-AFC”

Factor XIIa = Factor XIIa (Homo sapiens (Human), UniProt P00748); assay: Determination of enzyme selectivity, Factor XIIa; conditions: substrate at Km concentration
Chain of Factor XIIa (P00748 373-615): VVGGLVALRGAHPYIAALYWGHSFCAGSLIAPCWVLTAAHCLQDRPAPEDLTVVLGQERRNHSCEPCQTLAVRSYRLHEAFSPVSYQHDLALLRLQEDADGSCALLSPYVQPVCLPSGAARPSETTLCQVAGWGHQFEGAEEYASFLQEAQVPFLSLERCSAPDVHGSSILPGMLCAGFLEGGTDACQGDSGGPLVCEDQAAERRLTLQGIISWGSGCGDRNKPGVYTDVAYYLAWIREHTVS
Protocol: Determination of Enzyme Selectivity
Human serine protease enzymes plasmin, thrombin, trypsin, Factor Xa and Factor XIIa were assayed for enzymatic activity using an appropriate fluorogenic substrate. Protease activity was measured by monitoring the accumulation of liberated fluorescence from the substrate over 5 minutes. The linear rate of fluorescence increase per minute was expressed as percentage (%) activity. The Km for the cleavage of each substrate was determined by standard transformation of the Michaelis-Menten equation.

Chain of Human KLK1 (P06870 25-262): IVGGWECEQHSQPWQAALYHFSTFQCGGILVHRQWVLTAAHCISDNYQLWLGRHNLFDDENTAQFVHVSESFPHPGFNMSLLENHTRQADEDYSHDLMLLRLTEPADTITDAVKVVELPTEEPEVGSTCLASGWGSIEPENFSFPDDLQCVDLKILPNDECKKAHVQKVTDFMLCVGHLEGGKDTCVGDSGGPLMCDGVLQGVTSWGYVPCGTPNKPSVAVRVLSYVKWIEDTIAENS

Compound | IC50 (Human KLK1) [µM] | IC50 (Human plasma kallikrein) [nM] | IC50 (Factor XIIa) [nM]
Cc1cnn(Cc2ccc(Cn3cc(C(=O)NCc4ccc5[nH]ccc5c4)c(C(F)(F)F)n3)cc2)c1 [Example 112, 1-[4-(4-Methyl-pyrazol-1-ylmethyl)-benzyl]-3-trifluoromethyl-1H-pyrazole-4-carboxylic acid (1H-indol-5-ylmethyl)-amide] | > 10 | 60.6 | > 10000
Cc1cc(C(=O)NCc2ccc3c(N)nccc3c2)c(C)n1Cc1ccc(Cn2ccccc2=O)cc1 [Example 44, 2,5-Dimethyl-1-[4-(2-oxo-2H-pyridin-1-ylmethyl)-benzyl]-1H-pyrrole-3-carboxylic acid (1-amino-isoquinolin-6-ylmethyl)-amide] | 7.09 | 3.9 | > 10000
Nc1nccc2cc(CNC(=O)c3cnn(Cc4cccc(Oc5ncccc5F)c4)c3)ccc12 [Example 48, 1-[3-(3-Fluoro-pyridin-2-yloxy)-benzyl]-1H-pyrazole-4-carboxylic acid (1-amino-isoquinolin-6-ylmethyl)-amide] | 4.32 | 820 | > 40000
Cc1cnn(Cc2ccc(Cn3cc(C(=O)NCc4ccc5[nH]ncc5c4)c(C(F)(F)F)n3)cc2)c1 [Example 111, 1-[4-(4-Methyl-pyrazol-1-ylmethyl)-benzyl]-3-trifluoromethyl-1H-pyrazole-4-carboxylic acid (1H-indazol-5-ylmethyl)-amide] | 7.17 | 217 | > 10000
Cc1cnn(Cc2ccc(Cn3cc(C(=O)NCc4cccc5[nH]ccc45)c(C(F)(F)F)n3)cc2)c1 [Example 123, 1-[4-(4-Methyl-pyrazol-1-ylmethyl)-benzyl]-3-trifluoromethyl-1H-pyrazole-4-carboxylic acid (1H-indol-4-ylmethyl)-amide] | > 10 | 545 | > 10000
Cc1cnn(Cc2ccc(Cn3cc(C(=O)NCc4cnc5[nH]ccc5c4)nn3)cc2)c1 [Example 115, 1-[4-(4-Methyl-pyrazol-1-ylmethyl)-benzyl]-1H-[1,2,3]triazole-4-carboxylic acid (1H-pyrrolo[2,3-b]pyridin-5-ylmethyl)-amide] | > 10 | 177 | > 10000
O=C(NCc1cnc2[nH]ccc2c1)c1cnn(Cc2ccc(COc3cccc(F)n3)cc2)c1 [Example 109, 1-[4-(6-Fluoro-pyridin-2-yloxymethyl)-benzyl]-1H-pyrazole-4-carboxylic acid (1H-pyrrolo[2,3-b]pyridin-5-ylmethyl)-amide] | > 40 | 4200 | > 40000
Cc1cnn(Cc2ccc(Cn3cc(C(=O)NCc4cnc5[nH]ccc5c4)c(C4CC4)n3)cc2)c1 [Example 120, 3-Cyclopropyl-1-[4-(4-methyl-pyrazol-1-ylmethyl)-benzyl]-1H-pyrazole-4-carboxylic acid (1H-pyrrolo[2,3-b]pyridin-5-ylmethyl)-amide] | > 10 | 118 | > 10000
Cc1cnn(Cc2ccc(Cn3nc(C)c(C(=O)NCc4ccc5c(N)nccc5c4)c3C)cc2)c1 [Example 34, 3,5-Dimethyl-1-[4-(4-methyl-pyrazol-1-ylmethyl)-benzyl]-1H-pyrazole-4-carboxylic acid (1-amino-isoquinolin-6-ylmethyl)-amide] | 18.2 | 142 | > 40000
Nc1nccc2cc(CNC(=O)c3cnn(Cc4ccnc(N5CCCC5)c4)c3C(F)(F)F)ccc12 [Example 51, 1-(2-Pyrrolidin-1-yl-pyridin-4-ylmethyl)-5-trifluoromethyl-1H-pyrazole-4-carboxylic acid (1-amino-isoquinolin-6-ylmethyl)-amide] | 11.7 | 576 | > 40000
Nc1nccc2cc(CNC(=O)c3cn(Cc4ccc(N5CC[C@@H](F)C5)nc4)nc3C(F)(F)F)ccc12 [Example 61, 1-[6-((R)-3-Fluoro-pyrrolidin-1-yl)-pyridin-3-ylmethyl]-3-trifluoromethyl-1H-pyrazole-4-carboxylic acid (1-amino-isoquinolin-6-ylmethyl)-amide] | 7.66 | 18.1 | > 10000
Cc1cnn(Cc2ccc(Cn3cc(C(=O)NCc4ccc5c(N)nccc5c4)nn3)cc2)c1 [Example 33, 1-[4-(4-Methyl-pyrazol-1-ylmethyl)-benzyl]-1H-[1,2,3]triazole-4-carboxylic acid (1-amino-isoquinolin-6-ylmethyl)-amide] | > 10 | 2.8 | > 10000
Cc1cc(C(=O)NCc2ccc3ccnc(N)c3c2)c(C)n1Cc1csc(-c2ccccc2)n1 [Example 2, 2,5-Dimethyl-1-(2-phenyl-thiazol-4-ylmethyl)-1H-pyrrole-3-carboxylic acid (1-amino-isoquinolin-7-ylmethyl)-amide] | > 10 | 2110 | > 10000
Nc1nccc2cc(CNC(=O)c3cnn(Cc4cccc(Oc5ccccc5)n4)c3)ccc12 [Example 47, 1-(6-Phenoxy-pyridin-2-ylmethyl)-1H-pyrazole-4-carboxylic acid (1-amino-isoquinolin-6-ylmethyl)-amide] | 15.8 | 2030 | > 40000
COCc1nn(Cc2ccc(Cn3cc(C)cn3)cc2)cc1C(=O)NCc1ccc2c(N)nccc2c1 [Example 38, 3-Methoxymethyl-1-[4-(4-methyl-pyrazol-1-ylmethyl)-benzyl]-1H-pyrazole-4-carboxylic acid (1-amino-isoquinolin-6-ylmethyl)-amide] | 7.84 | 1.27 | > 10000
O=C(NCc1cnc2[nH]ccc2c1)c1cnn(Cc2cccc(Oc3ncccc3F)c2)c1 [Example 106, 1-[3-(3-Fluoro-pyridin-2-yloxy)-benzyl]-1H-pyrazole-4-carboxylic acid (1H-pyrrolo[2,3-b]pyridin-5-ylmethyl)-amide] | > 40 | 12000 | > 40000
Cc1cnn(Cc2ccc(Cn3cc(C(=O)NCc4ccc5c(N)nccc5c4)c(C(F)F)n3)cc2)c1 [Example 39, 3-Difluoromethyl-1-[4-(4-methyl-pyrazol-1-ylmethyl)-benzyl]-1H-pyrazole-4-carboxylic acid (1-amino-isoquinolin-6-ylmethyl)-amide] | 8.05 | 1.68 | > 10000
C[C@@H]1CCCN1c1ccc(Cn2cc(C(=O)NCc3ccc4c(N)nccc4c3)c(C(F)(F)F)n2)cn1 [Example 63, 1-[6-((R)-2-Methyl-pyrrolidin-1-yl)-pyridin-3-ylmethyl]-3-trifluoromethyl-1H-pyrazole-4-carboxylic acid (1-amino-isoquinolin-6-ylmethyl)-amide] | 5.7 | 12.3 | > 10000
Cc1cnn(Cc2ccc(Cn3cc(C(=O)NCc4ccc5c(N)nccc5c4)c(-c4ccccc4)n3)cc2)c1 [Example 35, 1-[4-(4-Methyl-pyrazol-1-ylmethyl)-benzyl]-3-phenyl-1H-pyrazole-4-carboxylic acid (1-amino-isoquinolin-6-ylmethyl)-amide] | > 10 | 3.68 | > 10000
CCOc1ccc(Cn2cc(C(=O)NCc3ccc4c(N)nccc4c3)c(C(F)(F)F)n2)cn1 [Example 55, 1-(6-Ethoxy-pyridin-3-ylmethyl)-3-trifluoromethyl-1H-pyrazole-4-carboxylic acid (1-amino-isoquinolin-6-ylmethyl)-amide] | 3.81 | 79.2 | > 10000

Reference: patent US9533987B2, “Heterocyclic derivates” (KALVISTA PHARMACEUTICALS LIMITED, priority 2013, dated 2017)
